Experimental data from US7265152B2 (ViroPharma Incorporated, priority 2002, dated 2007).
Like-named read-outs stand apart in the source and are kept apart here.

Legend:
[1] = tested on: HCV replicon (BB7 sequence) in Huh-7-Clone A cells; assay: HCV replicon assay: ELISA of NS5A protein in replicon-containing cells (Inhibition of Viral RNA Replication); format: cell-based; conditions: read-out: Replicon
In short: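 EC50 taken from an 8-point serially diluted dose curve, with NS5A level as read-out: fixed cells probed with primary monoclonal and HRP-conjugated secondary, TMB developed 30 min, OD 650 nm. Compound exposure 72 h in Huh-7-Clone A replicon cells (BB7 sequence).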

[2] = biological target: T1, HCV NS5B (Hepatitis C virus genotype 1b, UniProt Q9WMX2); assay: Inhibition of viral RNA-dependent RNA polymerase (RdRp), in vitro biochemical assay; set-up: species or system HCV genotype 1b virus (BB7); conditions: read-out: HCV pol-BB7 IC50
T1 construct: fusion protein, of which the carboxyl terminal 21 amino acids were removed to enhance its solubility; His tag (GSHHHHHH); made in house; host or cells: E. coli
In short: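 IC50 values are the concentrations that halve in vitro RNA synthesis by HCV NS5B polymerase. The enzyme was a C-terminally truncated (Δ21), His-tagged genotype 1b (BB7 consensus) protein purified from E. coli.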

[3] = Hepatitis C virus, HCV replicon assay, ranges of 50% effective concentration (EC50)
[4] = HCV NS5B polymerase, BB7 (genotype 1b), values given as range classes A-D
[5] = Hepatitis C virus, Huh-7-Clone A, NS5A ELISA, 72-hour incubation, ranges of EC50
[6] = purified His-tagged NS5B (BB7), carboxyl terminal 21 amino acids removed
[7] = Hepatitis C virus, ranges of EC50 in HCV replicon assay
[8] = Hepatitis C virus, HCV replicon, range of EC50
[9] = HCV NS5B RdRp, BB7, reported as range class
[10] = Hepatitis C virus, HCV replicon assay, ranges of EC50
[11] = HCV NS5B RdRp, BB7, class symbols A-D

5-(3-Cyano-benzyloxy)-2-(4-fluoro-phenyl)-6-(methanesulfonyl-methoxymethyl-amino)-benzofuran-3-carboxylic acid methylamide [Example 447]
EC50 ([1]; HCV replicon assay, ranges of EC50): < 1000 nM
IC50 ([2]; HCV NS5B RdRp, BB7 (genotype 1b), reported as class symbols): ≤ 500 nM

CNC(=O)c1c(-c2ccc(F)cc2)oc2cc(-c3c(C)noc3C)c(OCc3cc(C)on3)cc12 [Example 409, 6-(3,5-Dimethyl-isoxazol-4-yl)-2-(4-fluoro-phenyl)-5-(5-methyl-isoxazol-3-ylmethoxy)-benzofuran-3-carboxylic acid methylamide]
EC50 [1, 3]: < 1000 nM
IC50 [2, 4]: ≤ 500 nM

CNC(=O)c1c(-c2ccccc2)oc2ccc(C(C)(C)C)cc12 [Example 74, 5-tert-Butyl-2-phenyl-benzofuran-3-carboxylic acid methylamide]
EC50 [1, 5]: < 10000 nM
IC50 [2, 6]: ≤ 500 nM

CNC(=O)c1c(-c2ccc(F)cc2)oc2c(C)cc(OC(C)C)cc12 [Example 80, 2-(4-Fluoro-phenyl)-5-isopropoxy-7-methyl-benzufuran-3-carboxylic acid methylamide]
EC50 [1, 5]: < 30000 nM
IC50 [2, 6]: 500 to 5000 nM

CNC(=O)c1c(-c2ccc(F)cc2)oc2cc(NCc3ccoc3)c(OC(C)C)cc12 [Example 112, 2-(4-Fluoro-phenyl)-6-[(furan-3-ylmethyl)-amino]-5-isopropoxy-benzofuran-3-carboxylic acid methylamide]
EC50 [1, 7]: < 1000 nM
IC50 ([2]; HCV NS5B RdRp, BB7 genotype 1b): ≤ 500 nM

CNC(=O)c1c(-c2ccc(F)cc2)oc2cc(N(CC3(CO)CC3)S(C)(=O)=O)c(OCC3(CO)CC3)cc12 [Example 422, 2-(4-Fluoro-phenyl)-5-(1-hydroxymethyl-cyclopropylmethoxy)-6-[(1-hydroxymethyl-cyclopropylmethyl)-methanesulfonyl-amino]-benzofuran-3-carboxylic acid methylamide]
EC50 [1, 3]: < 10000 nM
IC50 [2, 4]: 500 to 5000 nM

2-(4-Bromo-phenyl)-5-isopropoxy-benzofuran-3-carboxylic acid methylamide [Example 104]
EC50 ([1]; ranges of EC50 in HCV replicon assay): < 10000 nM
IC50 ([2]; HCV NS5B RdRp, BB7 genotype 1b): ≤ 500 nM

CNC(=O)c1c(-c2ccc(F)cc2)oc2cc(NC(C)C)c(OC(C)C)cc12 [Example 114, 2-(4-Fluoro-phenyl)-5-isopropoxy-6-isopropylamino-benzofuran-3-carboxylic acid methylamide]
EC50 [1, 7]: < 1000 nM
IC50 ([2]; HCV NS5B RdRp, BB7 genotype 1b): ≤ 500 nM

CNC(=O)c1c(-c2ccc(F)cc2)oc2cc(S(=O)(=O)N3CCC(O)C3)c(OC(C)C)cc12 (stereo not shown) [Example 176, 2-(4-Fluoro-phenyl)-6-(3-hydroxy-pyrrolidine-1-sulfonyl)-5-isopropoxy-benzofuran-3-carboxylic acid methylamide]
EC50 [1, 8]: < 1000 nM
IC50 [2, 9]: ≤ 500 nM

CNC(=O)c1c(-c2ccc(F)cc2)oc2cc(-c3noc(C)n3)c(OC(C)C)cc12 [Example 198, 2-(4-Fluoro-phenyl)-5-isopropoxy-6-(5-methyl-[1,2,4]oxadiazol-3-yl)-benzofuran-3-carboxylic acid methylamide]
EC50 [1, 8]: < 1000 nM
IC50 [2, 9]: ≤ 500 nM

CNC(=O)c1c(-c2ccc(F)cc2)oc2cc(N(C)S(C)(=O)=O)c(OCCn3cccn3)cc12 [Example 404, 2-(4-Fluoro-phenyl)-6-(methanesulfonyl-methyl-amino)-5-(2-pyrazol-1-yl-ethoxy)-benzofuran-3-carboxylic acid methylamide]
EC50 [1, 3]: < 1000 nM
IC50 [2, 4]: ≤ 500 nM

CNC(=O)c1c(-c2ccc(F)cc2)oc2cc(NCCN3CCOCC3)c(OC(C)C)cc12 [Example 100, 2-(4-Fluoro-phenyl)-5-isopropoxy-6-(2-morpholin-4-yl-ethylamino)-benzofuran-3-carboxylic acid methylamide]
EC50 [1, 7]: < 30000 nM
IC50 ([2]; HCV NS5B RdRp, BB7 genotype 1b): 500 to 5000 nM

CNC(=O)c1c(-c2ccc(F)cc2)oc2cc(N(Cc3nc(C(=O)O)cs3)S(C)(=O)=O)c(OC(C)C)cc12 [Example 292, 2-({[2-(4-Fluoro-phenyl)-5-isopropoxy-3-methylcarbamoyl-benzofuran-6-yl]-methanesulfonyl-amino}-methyl)-thiazole-4-carboxylic acid]
EC50 [1, 10]: > 100000 nM
IC50 [2, 11]: ≤ 500 nM

CNC(=O)c1c(-c2ccc(F)cc2)oc2cc(N3CCOCC3)c(OC)cc12 [Example 103, 2-(4-Fluoro-phenyl)-5-methoxy-6-morpholin-4-yl-benzofuran-3-carboxylic acid methylamide]
EC50 [1, 7]: < 1000 nM
IC50 ([2]; HCV NS5B RdRp, BB7 genotype 1b): ≤ 500 nM

CNC(=O)c1c(-c2ccc(F)cc2)oc2cc(N(C)S(C)(=O)=O)c(OCc3cscn3)cc12 [Example 319, 2-(4-Fluoro-phenyl)-6-(methanesulfonyl-methyl-amino)-5-(thiazol-4-ylmethoxy)-benzofuran-3-carboxylic acid methylamide]
EC50 [1, 10]: < 1000 nM
IC50 [2, 11]: 500 to 5000 nM

CNC(=O)c1c(-c2ccc(F)cc2)oc2cc(OC)c(O)cc12 [Example 165, 2-(4-Fluoro-phenyl)-5-hydroxy-6-methoxy-benzofuran-3-carboxylic acid methylamide]
EC50 [1, 7]: > 30000 nM
IC50 ([2]; HCV NS5B RdRp, BB7 genotype 1b): 5000 to 30000 nM

CNC(=O)c1c(-c2ccc(F)cc2)oc2cc(N3CCCCC3)c(OC(C)C)cc12 [Example 101, 2-(4-Fluoro-phenyl)-5-isopropoxy-6-piperidin-1-yl-benzofuran-3-carboxylic acid methylamide]
EC50 [1, 7]: < 1000 nM
IC50 ([2]; HCV NS5B RdRp, BB7 genotype 1b): ≤ 500 nM
